Experimental data reported in US12421269B2, “SGLT2/DPP4 inhibitor and application thereof” (CGeneTech (Suzhou, China) CO., Ltd., priority 2019, dated 2025).

Tests used:
[1] = In vivo DMPK study in mice; conditions: male C57 mice; for Oral DNAUC (AUCPO/Dose): 10 mg/kg oral; for bioavailability / Cmax / clearance / half-life / Vd: mouse, plasma; for bioavailability: 1 mg/kg intravenous and 10 mg/kg oral, read-out: F % (oral bioavailability); for Cmax / clearance / half-life / Vd: single dose, 1 mg/kg intravenous or 10 mg/kg oral; for clearance: read-out: Cl (clearance rate); for half-life: read-out: T1/2 (half-life) (converted); for Vd: read-out: Vdss (volume of distribution)
Text: Experimental purpose: Male C57 mice were used as test animals to determine blood concentrations of compounds and assess pharmacokinetic behavior after a single dose.
Experimental procedure: Six healthy adult male C57 mice were selected, three of them for the intravenous injection group and three of them for the oral group. The compounds to be tested were mixed with an appropriate amount of intravenous injection group solvent (20% polyethylene glycol-400 (PEG400)/10% polyethylene glycol-15 hydroxystearate (solutol)/70% H2O), the mixture was vortexed and sonicated to obtain 1 mg/mL clarified solution, then the clarified solution was filtered through a microporous membrane and prepared for use; solvent for the oral group was 20% polyethylene glycol-400 (PEG400)/10% polyethylene glycol-15 hydroxystearate (solutol)/70% H2O, and the compounds to be tested were mixed with the solvent, then the mixture was vortexed and sonicated to obtain 1 mg/mL clarified solution. After 1 mg/kg intravenous administration or 10 mg/kg oral administration in mice, whole blood was collected for a certain period of time, then the plasma was prepared to obtain, and the drug concentration was analyzed by LC-MS/MS method, then the pharmacokinetic parameters were calculated using Phoenix WinNonlin software (Pharsight, USA).

[2] = target: recombinant human dipeptidyl peptidase 4 (rhDPP4) (Homo sapiens, UniProt P27487); assay: rhDPP4 inhibitor screening experiment; assay type: biochemical; conditions: Gly-Pro-aminofluorescein substrate, 1 hour at room temperature
Chain of recombinant human dipeptidyl peptidase 4 (rhDPP4) (P27487 whole entry): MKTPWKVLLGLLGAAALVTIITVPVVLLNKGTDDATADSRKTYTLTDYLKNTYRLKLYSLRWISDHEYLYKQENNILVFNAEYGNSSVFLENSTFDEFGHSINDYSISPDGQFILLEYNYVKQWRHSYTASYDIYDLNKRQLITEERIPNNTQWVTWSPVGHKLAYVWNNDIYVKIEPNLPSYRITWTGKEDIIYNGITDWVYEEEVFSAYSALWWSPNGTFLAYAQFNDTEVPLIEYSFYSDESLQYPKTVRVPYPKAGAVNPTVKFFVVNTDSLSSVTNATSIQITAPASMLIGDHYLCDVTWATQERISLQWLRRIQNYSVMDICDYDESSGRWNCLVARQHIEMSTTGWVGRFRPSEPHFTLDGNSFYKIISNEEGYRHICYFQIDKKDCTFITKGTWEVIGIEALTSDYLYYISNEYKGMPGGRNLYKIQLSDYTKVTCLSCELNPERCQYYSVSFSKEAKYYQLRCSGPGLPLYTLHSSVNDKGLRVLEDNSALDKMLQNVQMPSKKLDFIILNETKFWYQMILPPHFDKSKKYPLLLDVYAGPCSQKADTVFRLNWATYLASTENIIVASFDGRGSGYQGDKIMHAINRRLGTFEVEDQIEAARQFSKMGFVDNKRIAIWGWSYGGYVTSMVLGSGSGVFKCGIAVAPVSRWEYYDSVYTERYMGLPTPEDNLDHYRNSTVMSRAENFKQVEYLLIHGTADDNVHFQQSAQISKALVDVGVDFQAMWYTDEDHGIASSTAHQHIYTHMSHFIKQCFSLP
Text: To evaluate the inhibitory activity of compounds against recombinant human dipeptidyl peptidase 4 (rhDPP4) by measuring the half-inhibitory concentration (IC50) values of the compounds. In the experiment, rhDPP4 was used to catalyze the generation of […] from substrate, the substrate was a luminescent precursor […], and the substrate and luciferase were reacted to generate a light signal, the intensity of the light signal was proportional to the enzyme activity.
• 1) The gradient diluted compounds (4-fold fold-dilution, 10 assay concentrations) were transferred 250 nL into a 384-well plate (PerkingElmer-6007299) using a non-contact nano-acoustic pipetting system (ECHO), and dimethyl sulfoxide (DMSO) concentration was 0.5% in the final reaction system. Blank control wells (containing DMSO, substrate and 10 mM Tris-HCl) and positive control wells (containing DMSO, substrate and rhDPP4) were set up. • 2) The pre-dispensed frozen buffer containing luciferase was removed and restored to room temperature, and then the substrate was added to configure a working solution with a substrate concentration of 20 μM. RhDPP4 was prepared as a working solution of 0.2 ng/mL using 10 mM Tris-HCl (pH 8.0) aqueous solution. • 3) 25 μL of working solution containing 20 μM substrate and 25 μL of working solution containing 0.2 ng/mL rhDPP4 were added to a 384-well plate with the addition of the compound, then the mixture was centrifuged for 30 s at 1000 rpm, the plate was sealed with aluminum foil sealing film and incubated for 1 hour at room temperature. • 4) The intensity of the light signal was detected by EnVision, a multifunctional microplate reader. The raw data were used to calculate the inhibition of rhDPP4 activity by the compound. % of inhibition activity=100−(compound well signal value−blank control well signal value)/(positive control well signal value−blank control well signal value)*100. • The percent of inhibition was imported into GraphPad Prism software for data processing to derive the corresponding dose-effect curves and to derive the IC50 values of the tested compounds.

Human-SGLT1 = target: T1, Human-SGLT1 (Homo sapiens, UniProt P13866); assay: SGLT1 glucose transport assay ([14C]-labeled glucose uptake); assay type: cell-based; conditions: cells stably expressing Human-SGLT1, 37° C., 2 hours
T1 sequence (P13866 1-664): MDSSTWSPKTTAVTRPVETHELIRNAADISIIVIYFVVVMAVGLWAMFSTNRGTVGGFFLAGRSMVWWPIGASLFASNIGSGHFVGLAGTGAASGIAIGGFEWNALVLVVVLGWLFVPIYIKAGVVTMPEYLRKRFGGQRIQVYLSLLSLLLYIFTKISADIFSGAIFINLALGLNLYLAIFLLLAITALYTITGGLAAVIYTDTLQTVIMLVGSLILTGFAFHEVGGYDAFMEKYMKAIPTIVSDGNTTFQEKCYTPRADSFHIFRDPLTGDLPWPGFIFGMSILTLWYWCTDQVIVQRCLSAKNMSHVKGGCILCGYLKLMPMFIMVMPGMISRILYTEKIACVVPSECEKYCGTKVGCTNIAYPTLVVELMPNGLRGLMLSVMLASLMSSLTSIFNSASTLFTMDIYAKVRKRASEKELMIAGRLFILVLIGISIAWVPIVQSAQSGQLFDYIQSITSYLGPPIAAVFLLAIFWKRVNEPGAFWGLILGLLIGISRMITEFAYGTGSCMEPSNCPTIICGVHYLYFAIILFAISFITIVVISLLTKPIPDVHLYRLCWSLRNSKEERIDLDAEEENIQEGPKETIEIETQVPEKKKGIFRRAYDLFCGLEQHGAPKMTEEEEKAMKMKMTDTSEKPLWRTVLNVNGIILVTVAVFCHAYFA
Description: To test the effect of compounds on the glucose transport activity of SGLT1 transporters by measuring the amount of [^14C]-labeled glucose entering highly expressed Human-SGLT1 cells.
The cells stably expressing Human-SGLT1 used for the experiments were constructed by WuXi AppTec Shanghai. The SGLT1 cells were plated in Cytostar-T (PerkinElmer) 96-well cell culture plates and cultured overnight at 5% CO2, 37° C.
Experimental buffer: 10 mM 4-hydroxyethylpiperazine ethanesulfonic acid (HEPES), 1.2 mM magnesium chloride (MgCl2), 4.7 mM potassium chloride (KCl), 2.2 mM calcium chloride (CaCl2) and 120 mM sodium chloride (NaCl).
The compounds were diluted with 100% dimethyl sulfoxide (DMSO) at a starting concentration of 1 mM, 8 points of 5-fold serial gradient dilution was made.
3 μM [^14C]-labeled methyl α-D-glucopyranoside (Methyl a-D-glucopyranosid) was prepared with experimental buffer.
Cells were treated with 49 μL of experimental buffer, 1 μL of gradient-diluted compound and 50 μL of 3 μM [^14C]-isotope-labeled glucose solution at 37° C. for 2 hours.
Readings were taken with an isotope detector (Micro beta Reader).
The data were calculated by GraphPad Prism 5.0 software using the formula: log(inhibitor) vs. response—Variable slope to obtain the IC50 values of the tested compounds, and the experimental results are shown in Table 5.

CS[C@H]1O[C@@H](c2cc(Cc3ccc(O[C@@H]4CCN([C@H]5CO[C@H](c6cc(F)ccc6F)[C@@H](N)C5)C4)cc3)c(F)cc2F)[C@H](O)[C@@H](O)[C@@H]1O [WX006]
Oral DNAUC (AUCPO/Dose) [1]: 151.3 nM · h/mpk
bioavailability [1]: 18.7%
Cmax [1]: 250 nM
clearance [1]: 29.1 mL/min/kg
half-life [1]: 10.5 h
Vd [1]: 12 L/kg
IC50 [2]: 26.9 nM
IC50 (Human-SGLT1): 298 nM

CS[C@H]1O[C@@H](c2ccc(F)c(Cc3ccc(O[C@@H]4CCN([C@H]5CO[C@H](c6cc(F)ccc6F)[C@@H](N)C5)C4)cc3)c2)[C@H](O)[C@@H](O)[C@@H]1O [WX001]
Oral DNAUC (AUCPO/Dose) [1]: 194.8 nM · h/mpk
bioavailability [1]: 21.4%
Cmax [1]: 308 nM
clearance [1]: 31.4 mL/min/kg
half-life [1]: 7.39 h
Vd [1]: 12.2 L/kg
IC50 [2]: 31 nM
IC50 (Human-SGLT1): 1280 nM
